Test results taken from patent EP0598515A1, “Method for herbicidal activity-enhancing, activity-enhanced herbicidal composition and activity-enhancing composition” (ISHIHARA SANGYO KAISHA LTD., priority 1992, dated 1994).
Several values for one entry are separate records, joined by “and”; a condition that tells them apart may be missing. Equal values may be shown once. Read-outs that look alike come from different tables or passages of the source.

What was measured:
Assay type in all cases: in vivo
[1] = test system: Common lambsquarters (Chenopodium album L.); assay: Test Example 8: pot test, Example 8 suspension concentrate with Frigate; conditions: 408 h, 17 days after treatment, duplicate, read-out: Growth Inhibition (%) of Common Lambsquarters; for inhibition at 5 g/ha: Compound A 5 g/ha; for inhibition at 10 g/ha: Compound A 10 g/ha; for inhibition at 20 g/ha: Compound A 20 g/ha; for inhibition at 40 g/ha: Compound A 40 g/ha
Protocol: Common lambsquarters (Chenopodium album L.) seeds were sown in 1/1,000,000-hectare pots filled with upland soil and arranged in a duplicate system. When the common lambsquarters plants grew to a 8- to 9-leaf stage, the oil-based suspension concentrate obtained in Example 8 was diluted with 500 liters/hectare of water containing a predetermined amount of Frigate and was applied foliarly to the plants with a small spray gun.
Seventeen days after treatment, the growth inhibition of plants was evaluated with visual observation in the same manner as in Test Example 1 and are shown in Table 8.

[2] = test system: Crabgrass (Digitaria sanguinalis L.); assay: Test Example 12: field plot test, growth inhibition; conditions: 648 h, Example 8 suspension concentrate, 27 days after treatment, field plots, read-out: Growth Inhibition (%) DS; for inhibition at 40 g/ha: Compound A 40 g/ha; for inhibition at 60 g/ha: Compound A 60 g/ha
From the text: (§1) In field plots of 3 m² (1 m × 3 m) unit arranged in a duplicate system, seeds of corn, crabgrass (Digitaria sanguinalis L.), green foxtail (Setaria viridis L.), common lambsquarters (Chenopodium album L.), slender amaranth (Amaranthus virdis L.) and velvetleaf (Abutilon theophrasti MEDIC.) were sown and grown. Also, barnyardgrass (Echinochloa crus-galli L.), henbit (Lamiun amplexlcaule L.), pale smartweed (Polygonum lapathifolium L.) and threeseeded copperleaf (Acalypha australis L.) were allowed to grow spontaneously. When the plants grew to certain stages (corn: 6.1 to 6.5-leaf stage, crabgrass: 2.0 to 4.5-leaf stage, green foxtail: 3.0 to 4.5-leaf stage, common lambsquarters: 4.0 to 8.0-leaf stage, slender amaranth: 1.0 to 4.0-leaf stage, velvetleaf: 2.0 to 3.5-leaf stage, barnyardgrass: 3.0 to 4.5-leaf stage, henbit: 2.0 to 5.0 cm, pale smartweed: 3.0 to 5.0-leaf stage and threeseeded copperleaf: 2.0 to 4.0-leaf stage), the oil-based suspension concentrate obtained in Example 8 was diluted with 200 liters/hectare of water containing a predetermined amount of Frigate and was applied foliarly to the plants with a small spray gun.
(§2) Twenty seven days after treatment, the growth inhibition of plants except for corn plants was evaluated with visual observation in the same manner as in Test Example 1 and are shown in Table 12.

[3] = test system: green foxtail (Setaria viridis L.); assay: as above; conditions: 648 h, Example 8 suspension concentrate, 27 days after treatment, field plots, read-out: Growth Inhibition (%) SV
From the text: as §1, §2

[4] = test system: threeseeded copperleaf (Acalypha australis L.); assay: as above; conditions: Example 8 suspension concentrate, 27 days after treatment, field plots; for inhibition at 40 g/ha: Compound A 40 g/ha
From the text: as §1, §2

[5] = test system: Common lambsquarters (Chenopodium album L.); assay: Test Example 13: field plot test, growth inhibition; conditions: 648 h, Example 8 suspension concentrate, 27 days after treatment, field plots, read-out: Growth Inhibition (%) CA; for inhibition at 30 g/ha: Compound A 30 g/ha; for inhibition at 40 g/ha: Compound A 40 g/ha
From the text: (§3) In field plots of 4 m² (1 m × 4 m) unit arranged in a duplicate system, seeds of corn, crabgrass (Digitaria sanguinalis L.) common lambsquarters (Chenopodium album L.), slender amaranth (Amaranthus viridis L.), velvetleaf (Abutilon theophrasti MEDIC.) and common cocklebur (Xanthium strumarium L.) were sown and grown. Also, green foxtail (Setaria viridis L.) and barnyardgrass (Echinochloa crus-galli L.) were allowed to grow spontaneously. When the plants grew to certain stages (corn: 4.2 to 6.0-leaf stage, crabgrass: 3.2 to 5.0-leaf stage, common lambsquarters: 3.0 to 6.0-leaf stage, slender amaranth: 2.0 to 5.0-leaf stage, velvetleaf: 1.5 to 4.0-leaf stage, common cocklebur: cotyledonal to 3.5-leaf stage, green foxtail: 3.0 to 5.0-leaf stage and barnyardgrass: 3.0 to 5.0-leaf stage), the oil-based suspension concentrate obtained in Example 8 was diluted with 200 liters/hectare of water containing a predetermined amount of Frigate and was applied foliarly to the plants with a small spray gun.
(§4) Twenty seven days after treatment, the growth inhibition of plants except for corn plants was evaluated with visual observation in the same manner as in Test Example 1 and are shown in Table 13.

[6] = test system: barnyardgrass (Echinochloa crus-galli L.); assay: as above; conditions: Example 8 suspension concentrate, 27 days after treatment, field plots; for inhibition at 30 g/ha: Compound A 30 g/ha
From the text: as §3, §4

[7] = test system: common cocklebur (Xanthium strumarium L.); assay: as above; conditions: Example 8 suspension concentrate, 27 days after treatment, field plots
From the text: as §3, §4

[8] = test system: slender amaranth (Amaranthus viridis L.); assay: as above; conditions: 648 h, Example 8 suspension concentrate, 27 days after treatment, field plots, read-out: Growth Inhibition (%) AV; for inhibition at 30 g/ha: Compound A 30 g/ha; for inhibition at 40 g/ha: Compound A 40 g/ha
From the text: as §3, §4

[9] = Frigate 0.2 % by volume, Compound A 20 g/ha
[10] = Frigate 0.2 % by volume, Compound A 30 g/ha
[11] = Frigate 0.2 % by volume, Compound A 40 g/ha
[12] = Frigate: No addition, Compound A 50 g/ha

COc1cc(OC)nc(NC(=O)NS(=O)(=O)c2ncccc2C(=O)N(C)C)n1 [Compound A, N-[(4,6-dimethoxypyrimidin-2-yl)aminocarbonyl]-3-dimethylaminocarbonyl-2-pyridinesulfonamide]
75%: inhibition at 40 g/ha ([6]; Echinochloa crus-galli, 648 h, Frigate: No addition, Compound A 40 g/ha, read-out: Growth Inhibition (%) EC) | inhibition at 40 g/ha ([7]; Xanthium strumarium, 648 h, Frigate: No addition, Compound A 40 g/ha, read-out: Growth Inhibition (%) XS)
50%: inhibition at 5 g/ha ([1]; Frigate 0.25 % by volume) | inhibition at 20 g/ha ([1]; Frigate: No addition)
65%: inhibition at 40 g/ha ([5]; Frigate: No addition) | inhibition at 50 g/ha [5, 12] | inhibition at 30 g/ha ([6]; Echinochloa crus-galli, 648 h, Frigate: No addition, read-out: Growth Inhibition (%) EC) | Growth Inhibition (%) XS [7, 11]
25% and 50%: Growth Inhibition (%) XS ([7]; Frigate: No addition, Compound A 30 g/ha)
55%: inhibition at 5 g/ha ([1]; Frigate 0.5 % by volume)
80%: inhibition at 20 g/ha ([1]; Frigate 0.25 % by volume) | inhibition at 40 g/ha ([1]; Frigate: No addition) | inhibition at 30 g/ha ([5]; Frigate 0.1 % by volume) | inhibition at 30 g/ha ([7]; Xanthium strumarium, 648 h, Frigate 0.1 % by volume, Compound A 30 g/ha, read-out: Growth Inhibition (%) XS) | inhibition at 40 g/ha ([7]; Xanthium strumarium, 648 h, Frigate 0.1 % by volume, Compound A 40 g/ha, read-out: Growth Inhibition (%) XS) | inhibition at 20 g/ha ([7]; Xanthium strumarium, 648 h, Frigate 0.2 % by volume, Compound A 20 g/ha, read-out: Growth Inhibition (%) XS)
85%: inhibition at 20 g/ha ([1]; Frigate 0.5 % by volume) | inhibition at 30 g/ha ([5]; Frigate 0.2 % by volume) | inhibition at 30 g/ha ([7]; Xanthium strumarium, 648 h, Frigate 0.2 % by volume, Compound A 30 g/ha, read-out: Growth Inhibition (%) XS) | inhibition at 20 g/ha [8, 9]
98%: inhibition at 60 g/ha ([2]; Frigate: No addition) | Growth Inhibition (%) AA ([4]; Frigate 0.2 % by volume, Compound A 60 g/ha)
0%: inhibition at 5 g/ha ([1]; Frigate: No addition) | inhibition at 10 g/ha ([1]; Frigate: No addition)
60%: inhibition at 10 g/ha ([1]; Frigate 0.25 % by volume) | Growth Inhibition (%) EC ([6]; Frigate: No addition, Compound A 40 g/ha)
45%: inhibition at 30 g/ha ([5]; Frigate: No addition)
90%: inhibition at 40 g/ha ([1]; Frigate 0.25 % by volume) | inhibition at 40 g/ha ([1]; Frigate 0.5 % by volume) | inhibition at 20 g/ha [2, 9] | inhibition at 20 g/ha ([4]; Acalypha australis, 648 h, Frigate 0.2 % by volume, Compound A 20 g/ha, read-out: Growth Inhibition (%) AA) | inhibition at 30 g/ha ([4]; Acalypha australis, 648 h, Frigate 0.2 % by volume, Compound A 30 g/ha, read-out: Growth Inhibition (%) AA) | inhibition at 60 g/ha ([4]; Acalypha australis, 648 h, Frigate 0.2 % by volume, Compound A 60 g/ha, read-out: Growth Inhibition (%) AA) | inhibition at 40 g/ha ([4]; Acalypha australis, 648 h, Frigate: No addition, read-out: Growth Inhibition (%) AA) | inhibition at 60 g/ha ([4]; Acalypha australis, 648 h, Frigate: No addition, Compound A 60 g/ha, read-out: Growth Inhibition (%) AA) | inhibition at 40 g/ha ([5]; Frigate 0.1 % by volume) | inhibition at 40 g/ha ([5]; Frigate 0.2 % by volume) | inhibition at 40 g/ha ([8]; Frigate 0.1 % by volume) | inhibition at 30 g/ha ([8]; Frigate 0.2 % by volume) | inhibition at 30 g/ha ([8]; Frigate: No addition)
95%: inhibition at 30 g/ha [2, 10] | inhibition at 40 g/ha ([2]; Frigate 0.2 % by volume) | inhibition at 40 g/ha ([2]; Frigate: No addition) | inhibition at 40 g/ha ([4]; Acalypha australis, 648 h, Frigate 0.2 % by volume, read-out: Growth Inhibition (%) AA) | inhibition at 30 g/ha ([8]; Frigate 0.1 % by volume) | inhibition at 40 g/ha ([8]; Frigate 0.2 % by volume) | inhibition at 40 g/ha ([8]; Frigate: No addition) | inhibition at 50 g/ha [8, 12]
99%: inhibition at 60 g/ha ([2]; Frigate 0.2 % by volume)
100%: inhibition at 20 g/ha [3, 9] | inhibition at 30 g/ha [3, 10] | inhibition at 40 g/ha [3, 11] | inhibition at 60 g/ha ([3]; Frigate: No addition, Compound A 60 g/ha) | inhibition at 40 g/ha ([6]; Echinochloa crus-galli, 648 h, Frigate 0.1 % by volume, Compound A 40 g/ha, read-out: Growth Inhibition (%) EC) | inhibition at 20 g/ha ([6]; Echinochloa crus-galli, 648 h, Frigate 0.2 % by volume, Compound A 20 g/ha, read-out: Growth Inhibition (%) EC) | inhibition at 30 g/ha ([6]; Echinochloa crus-galli, 648 h, Frigate 0.2 % by volume, read-out: Growth Inhibition (%) EC) | inhibition at 40 g/ha ([6]; Echinochloa crus-galli, 648 h, Frigate 0.2 % by volume, Compound A 40 g/ha, read-out: Growth Inhibition (%) EC)
70%: inhibition at 10 g/ha ([1]; Frigate 0.5 % by volume) | inhibition at 50 g/ha ([7]; Xanthium strumarium, 648 h, Frigate: No addition, Compound A 50 g/ha, read-out: Growth Inhibition (%) XS)
